In PMC11971462, “Generation and validation of a novel multitarget small molecule in glioblastoma” (Cell Death & Disease, 2025):

Test system: GNS166 cells
Test: Label-free proteomics differential expression
Type: cell-based, human
Procedure: Proteomic studies were performed by the Proteomics Facility of the CIC bioGUNE by label-free relative quantification on nLC MS/MS. […] In both approaches, the top 20 enriched terms were plotted and the pathways were clustered using divisive hierarchical clustering based on pairwise Jaccard distances.

[1] = label-free proteomics, sheet DDI Prot

## C#CCN(Cc1cc2cc(OCCCN3CCCCC3)ccc2n1S(=O)(=O)c1ccccc1)C(=O)CCCCCCC(=O)NO [DDI]
[1]
  Direction of BIEA_HUMAN (P53004, GN=BLVRA) protein: Up
  Direction of CASP3_HUMAN (P42574, GN=CASP3) protein: Up
  Direction of COEA1_HUMAN (Q05707, GN=COL14A1) protein: Up
  Direction of GSH1_HUMAN (P48506, GN=GCLC) protein: Up
  Direction of LKHA4_HUMAN (P09960, GN=LTA4H) protein: Up
  Direction of NDUAC_HUMAN (Q9UI09, GN=NDUFA12) protein: Up
  Direction of PGPS1_HUMAN (Q32NB8, GN=PGS1) protein: Up
  Direction of PTSS1_HUMAN (P48651, GN=PTDSS1) protein: Up
  Direction of RETST_HUMAN (Q6NUM9, GN=RETSAT) protein: Up
  Direction of WDR47_HUMAN (O94967, GN=WDR47) protein: Up
  Direction of YIPF5_HUMAN (Q969M3, GN=YIPF5) protein: Up
label-free proteomics, sheet DDI Prot, p value 0.0469656
  LogFC of PGPS1_HUMAN (Q32NB8, GN=PGS1) protein: 1.405
label-free proteomics, sheet DDI Prot, p value 0.0475587
  LogFC of BIEA_HUMAN (P53004, GN=BLVRA) protein: 0.7997
label-free proteomics, sheet DDI Prot, p value 0.0480187
  LogFC of GSH1_HUMAN (P48506, GN=GCLC) protein: 1.55
label-free proteomics, sheet DDI Prot, p value 0.0482259
  LogFC of WDR47_HUMAN (O94967, GN=WDR47) protein: 1.18
label-free proteomics, sheet DDI Prot, p value 0.0482636
  LogFC of LKHA4_HUMAN (P09960, GN=LTA4H) protein: 0.5863
label-free proteomics, sheet DDI Prot, p value 0.0487326
  LogFC of CASP3_HUMAN (P42574, GN=CASP3) protein: 0.743
label-free proteomics, sheet DDI Prot, p value 0.049075
  LogFC of YIPF5_HUMAN (Q969M3, GN=YIPF5) protein: 0.5348
label-free proteomics, sheet DDI Prot, p value 0.0492119
  LogFC of NDUAC_HUMAN (Q9UI09, GN=NDUFA12) protein: 0.6479
label-free proteomics, sheet DDI Prot, p value 0.0493344
  LogFC of COEA1_HUMAN (Q05707, GN=COL14A1) protein: 0.8788
label-free proteomics, sheet DDI Prot, p value 0.049447
  LogFC of RETST_HUMAN (Q6NUM9, GN=RETSAT) protein: 0.7532
label-free proteomics, sheet DDI Prot, p value 0.0494892
  LogFC of PTSS1_HUMAN (P48651, GN=PTDSS1) protein: 0.7741
Protein A5YKK6
  Direction CNOT1_HUMAN: Down
  LogFC CNOT1_HUMAN: -0.5343
Protein A6NI47
  Direction POTEM_HUMAN: Down
  LogFC POTEM_HUMAN: -1.6004
Protein O00154 GN=ACOT7
  LogFC BACH_HUMAN: 0.4908
Protein O00186 GN=STXBP3
  LogFC STXB3_HUMAN: -0.9203
Protein O00443
  Direction P3C2A_HUMAN: Down
  LogFC P3C2A_HUMAN: -0.6873
Protein O00560 GN=SDCBP
  LogFC SDCB1_HUMAN: 2.446
Protein O00571
  Direction DDX3X_HUMAN: Down
  LogFC DDX3X_HUMAN: -0.4203
Protein O00767 GN=SCD
  LogFC ACOD_HUMAN: 1.2881
Protein O14497
  Direction ARI1A_HUMAN: Down
  LogFC ARI1A_HUMAN: -1.314
Protein O14656 GN=TOR1A
  LogFC TOR1A_HUMAN: -0.6936
Protein O14744
  Direction ANM5_HUMAN: Down
  LogFC ANM5_HUMAN: -0.2326
Protein O14757
  Direction CHK1_HUMAN: Down
  LogFC CHK1_HUMAN: -0.9245
Protein O14908 GN=GIPC1
  LogFC GIPC1_HUMAN: 1.5016
Protein O14965
  Direction AURKA_HUMAN: Down
  LogFC AURKA_HUMAN: -3.358
Protein O15121
  Direction DEGS1_HUMAN: Down
  LogFC DEGS1_HUMAN: -0.1717
Protein O15173 GN=PGRMC2
  LogFC PGRC2_HUMAN: 0.7586
Protein O15254 GN=ACOX3
  LogFC ACOX3_HUMAN: 1.235
Protein O15294
  Direction OGT1_HUMAN: Down
  LogFC OGT1_HUMAN: -0.4734
Protein O15321
  Direction TM9S1_HUMAN: Down
  LogFC TM9S1_HUMAN: -2.186
Protein O15344 GN=MID1
  LogFC TRI18_HUMAN: 0.3983
Protein O15357
  Direction SHIP2_HUMAN: Down
  LogFC SHIP2_HUMAN: -1.6838
Protein O15360
  Direction FANCA_HUMAN: Down
  LogFC FANCA_HUMAN: -1.214
Protein O15427 GN=SLC16A3
  LogFC MOT4_HUMAN: 1.9
Protein O15439
  Direction MRP4_HUMAN: Down
  LogFC MRP4_HUMAN: -0.8149
Protein O15533 GN=TAPBP
  LogFC TPSN_HUMAN: -0.5526
Protein O43242 GN=PSMD3
  LogFC PSMD3_HUMAN: -0.4067
Protein O43252 GN=PAPSS1
  LogFC PAPS1_HUMAN: 0.7138
Protein O43314
  Direction VIP2_HUMAN: Down
  LogFC VIP2_HUMAN: -0.766
Protein O43615 GN=TIMM44
  LogFC TIM44_HUMAN: -0.5983
Protein O43709
  Direction BUD23_HUMAN: Down
  LogFC BUD23_HUMAN: -2.307
Protein O43823
  Direction AKAP8_HUMAN: Down
  LogFC AKAP8_HUMAN: -2.082
Protein O43824
  Direction GTPB6_HUMAN: Down
  LogFC GTPB6_HUMAN: -1.261
Protein O60333
  Direction KIF1B_HUMAN: Down
  LogFC KIF1B_HUMAN: -2
Protein O60462 GN=NRP2
  LogFC NRP2_HUMAN: -0.6899
Protein O60502 GN=OGA
  LogFC OGA_HUMAN: 0.8005
Protein O60518 GN=RANBP6
  LogFC RNBP6_HUMAN: 1.52
Protein O75131 GN=CPNE3
  LogFC CPNE3_HUMAN: 0.4901
Protein O75146 GN=HIP1R
  LogFC HIP1R_HUMAN: 2.1312
Protein O75153
  Direction CLU_HUMAN: Down
  LogFC CLU_HUMAN: -0.6987
Protein O75352
  Direction MPU1_HUMAN: Down
  LogFC MPU1_HUMAN: -0.8716
Protein O75354
  Direction ENTP6_HUMAN: Down
  LogFC ENTP6_HUMAN: -1.463
Protein O75431 GN=MTX2
  LogFC MTX2_HUMAN: -0.4239
Protein O75691
  Direction UTP20_HUMAN: Down
  LogFC UTP20_HUMAN: -1.068
Protein O75937
  Direction DNJC8_HUMAN: Down
  LogFC DNJC8_HUMAN: -0.4544
Protein O75954
  Direction TSN9_HUMAN: Down
  LogFC TSN9_HUMAN: -3.176
Protein O76094 GN=SRP72
  LogFC SRP72_HUMAN: -0.4411
Protein O94829 GN=IPO13
  LogFC IPO13_HUMAN: 1.054
Protein O94854 GN=KIAA0754
  LogFC K0754_HUMAN: -2.89
Protein O94925 GN=GLS
  LogFC GLSK_HUMAN: 1.0422
Protein O94964
  Direction SOGA1_HUMAN: Down
  LogFC SOGA1_HUMAN: -1.709
Protein O95071
  Direction UBR5_HUMAN: Down
  LogFC UBR5_HUMAN: -1.078
Protein O95166 GN=GABARAP
  LogFC GBRAP_HUMAN: 0.6601
Protein O95239
  Direction KIF4A_HUMAN: Down
  LogFC KIF4A_HUMAN: -2.337
Protein O95249
  Direction GOSR1_HUMAN: Down
  LogFC GOSR1_HUMAN: -1.68
Protein O95251
  Direction KAT7_HUMAN: Down
  LogFC KAT7_HUMAN: -3.074
Protein O95347
  Direction SMC2_HUMAN: Down
  LogFC SMC2_HUMAN: -0.9053
Protein O95363 GN=FARS2
  LogFC SYFM_HUMAN: -0.6412
Protein O95479 GN=H6PD
  LogFC G6PE_HUMAN: -1.176
Protein O95573 GN=ACSL3
  LogFC ACSL3_HUMAN: 1.019
Protein O95671 GN=ASMTL
  LogFC ASML_HUMAN: 3.03
Protein O95793
  Direction STAU1_HUMAN: Down
